Assay results: patent publication US10130633B2, “Compounds” (BAYER PHARMA AKTIENGESELLSCHAFT, priority 2013, dated 2018)
pIC50: −log10 of the molar value.

How the values were obtained:
[1] = system: constitutive active colorectal cancer cell (CRC) Wnt pathway; experiment: HCT116 TOPFlash cellular reporter assay (Super TopFlash luciferase), constitutive active Wnt pathway; assay type: cell-based; conditions: HCT116 TOP reporter cells, 36 hours incubation, luciferase expression
Description: In order to discover and characterize small molecules which inhibit the constitutive active colorectal cancer cell (CRC) Wnt pathway, a cellular reporter assay was employed. […] Stable transfectants were generated by cotransfection with pcDNA3 and selection of stable transfected cells with 1 mg/ml G418.

[2] = system: HCT116 FOP control reporter cell line; experiment: HCT116 FOPFlash control reporter assay (FOP control vector, non-functional TCF elements); assay type: cell-based; conditions: HCT116 FOP control reporter cells, 36 hours incubation, luciferase expression
Text: In a parallel approach, HCT116 cells were cotransfected with the FOP control vector and pcDNA3. The FOP vector is identical to the TOP construct, but it contains instead of functional TCF elements a randomized, non-functional sequence. For this transfection a stable transfected cell line was generated as well.

| pIC50 ([1]; Homo sapiens, HCT-116, 36 h) | pIC50 ([2]; Homo sapiens, HCT-116, 36 h) | pIC50 [1] | pIC50 [2] | Structure (SMILES) |
| --- | --- | --- | --- | --- |
| 5.39 | ≤ 4.30 | – | – | O=C(CN1CCOCC1)Nc1cc(C(=O)Nc2nnc(-c3ccccc3)o2)ccc1OC(F)(F)F [Example 191, 3-[(morpholin-4-ylacetyl)amino]-N-(5-phenyl-1,3,4-oxadiazol-2-yl)-4-(trifluoromethoxy)benzamide] |
| 7.24 | ≤ 4.30 | – | – | C[C@H]1CN(CC(=O)Nc2cc(C(=O)Nc3ccc(-c4ccccc4F)nc3)ccc2OC(F)(F)F)CCN1C [Example 163, 3-({[(3S)-3,4-dimethylpiperazin-1-yl]acetyl}amino)-N-[6-(2-fluorophenyl)pyridin-3-yl]-4-(trifluoromethoxy)benzamide] |
| 6.44 | ≤ 4.30 | – | – | CN(C)C1(C(=O)Nc2cc(C(=O)Nc3ccc(-c4ccccc4F)nc3)ccc2OC(F)(F)F)CC1 [Example 179, 3-({[1-(dimethylamino)cyclopropyl]carbonyl}amino)-N-[6-(2-fluorophenyl)pyridin-3-yl]-4-(trifluoromethoxy)benzamide] |
| 6.09 | 4.44 | – | – | COc1ccc(NC(=O)c2ccc(-c3ccccc3F)nc2)cc1NC(=O)CN1CCOCC1 [Example 31, 6-(2-fluorophenyl)-N-{4-methoxy-3-[(morpholin-4-ylacetyl)amino]phenyl}nicotinamide] |
| 7.47 | 4.49 | – | – | CN1CCN(C2(C(=O)Nc3cc(C(=O)Nc4nnc(-c5ccccc5)s4)ccc3OC(F)F)CC2)CC1 [Example 39, 4-(difluoromethoxy)-3-({[1-(4-methylpiperazin-1-yl)cyclopropyl]carbonyl}amino)-N-(5-phenyl-1,3,4-thiadiazol-2-yl)benzamide] |
| 6.32 | ≤ 4.30 | – | – | Cc1ccccc1-c1nnc(NC(=O)c2ccc(OC(F)(F)F)c(NC(=O)C3(N4CCN(C)CC4)CC3)c2)s1 [Example 271, N-[5-(2-methylphenyl)-1,3,4-thiadiazol-2-yl]-3-({[1-(4-methylpiperazin-1-yl)cyclopropyl]carbonyl}amino)-4-(trifluoromethoxy)benzamide] |
| – | – | 7.83 | ≤ 4.30 | CC(C(=O)Nc1cc(C(=O)Nc2ccc(-c3cccc(F)c3)nc2)ccc1OC(F)(F)F)N1CCOCC1 (centres unmarked) [Example 69, N-[6-(3-fluorophenyl)pyridin-3-yl]-3-{[2-(morpholin-4-yl)propanoyl]amino}-4-(trifluoromethoxy)benzamide] |
| 5.66 | ≤ 4.30 | – | – | CN1CCN(CC(=O)Nc2cc(C(=O)Nc3nnc(-c4ccc(Cl)cc4)s3)ccc2OC(F)(F)F)CC1 [Example 147, N-[5-(4-chlorophenyl)-1,3,4-thiadiazol-2-yl]-3-{[(4-methylpiperazin-1-yl)acetyl]amino}-4-(trifluoromethoxy)benzamide] |
| – | – | 6.92 | 5.26 | CC(C(=O)Nc1cc(NC(=O)c2ccc(-c3cccc(F)c3)nc2)ccc1OC(F)(F)F)N1CC2CCC(C1)O2 (centres unmarked) [Example 188, 6-(3-fluorophenyl)-N-[3-{[2-(8-oxa-3-azabicyclo[3.2.1]oct-3-yl)propanoyl]amino}-4-(trifluoromethoxy)phenyl] nicotinamide] |
| – | – | 6.61 | 5.48 | CC(C(=O)Nc1cc(C(=O)Nc2ccc(-c3cc(F)cc(F)c3)nc2)ccc1OC(F)(F)F)N1CC2CCC(C1)O2 (centres unmarked) [Example 215, N-[6-(3,5-difluorophenyl)pyridin-3-yl]-3-{[2-(8-oxa-3-azabicyclo[3.2.1]oct-3-yl)propanoyl]amino}-4-(trifluoromethoxy)benzamide] |
| 7.01 | ≤ 4.30 | – | – | O=C(CN1CC2CCC(C1)O2)Nc1cc(C(=O)Nc2ccc(-c3cc(F)cc(F)c3)nc2)ccc1OC(F)(F)F [Example 73, N-[6-(3,5-difluorophenyl)pyridin-3-yl]-3-[(8-oxa-3-azabicyclo[3.2.1]oct-3-ylacetyl)amino]-4-(trifluoromethoxy)benzamide] |
| – | – | 6.36 | ≤ 4.30 | CC(C(=O)Nc1cc(NC(=O)c2ccc(-c3cc(F)cc(F)c3)nc2)ccc1OC(F)(F)F)N1C[C@@H]2C[C@H]1CO2 (relative stereo) [Example 217, 6-(3,5-difluorophenyl)-N-[3-({(2S*)-2-[(1S,4S)-2-oxa-5-azabicyclo[2.2.1]hept-5-yl]propanoyl}amino)-4-(trifluoromethoxy)phenyl] nicotinamide] |
| 5.92 | 4.47 | – | – | CN1CCN(CC(=O)Nc2cc(C(=O)Nc3ccc(-c4ccccc4F)nc3)ccc2OC(F)(F)F)CC1 [Example 197, N-[6-(2-fluorophenyl)pyridin-3-yl]-3-{[(4-methylpiperazin-1-yl)acetyl]amino}-4-(trifluoromethoxy)benzamide] |
| – | – | 6.63 | 4.91 | CC(C(=O)Nc1cc(C(=O)Nc2ccc(-c3cc(F)cc(F)c3)nc2)ccc1OC(F)(F)F)N1CCOCC1 (centres unmarked) [Example 221, N-[6-(3,5-difluorophenyl)pyridin-3-yl]-3-{[2-(morpholin-4-yl)propanoyl]amino}-4-(trifluoromethoxy)benzamide] |
| 6.62 | ≤ 4.30 | – | – | O=C(Nc1nnc(-c2ccccc2)s1)c1ccc(O)c(NC(=O)C2(N3CCOCC3)CC2)c1 [Example 93, 4-hydroxy-3-({[1-(morpholin-4-yl)cyclopropyl]carbonyl}amino)-N-(5-phenyl-1,3,4-thiadiazol-2-yl)benzamide] |
| 6.69 | 4.44 | – | – | CN1CCN(CC(=O)Nc2cc(C(=O)Nc3nnc(-c4ccccc4Cl)s3)ccc2OC(F)(F)F)CC1 [Example 148, N-[5-(2-chlorophenyl)-1,3,4-thiadiazol-2-yl]-3-{[(4-methylpiperazin-1-yl)acetyl]amino}-4-(trifluoromethoxy)benzamide] |
| 6.82 | ≤ 4.30 | – | – | COCCN(C)CC(=O)Nc1cc(C(=O)Nc2nnc(-c3ccccc3)s2)ccc1OC(F)(F)F [Example 85, 3-{[N-(2-methoxyethyl)-N-methylglycyl]amino}-N-(5-phenyl-1,3,4-thiadiazol-2-yl)-4-(trifluoromethoxy)benzamide] |
| 5.64 | ≤ 4.30 | – | – | O=C(CN1CCOCC1)Nc1cc(NC(=O)c2cnc(-c3ccccc3)s2)ccc1OC(F)(F)F [Example 252, N-{3-[(morpholin-4-ylacetyl)amino]-4-(trifluoromethoxy)phenyl}-2-phenyl-1,3-thiazole-5-carboxamide] |
| 6.28 | ≤ 4.30 | – | – | CN1CCN(CC(=O)Nc2cc(C(=O)Nc3nnc(-c4ccccc4)s3)ccc2Cl)CC1 [Example 173, 4-chloro-3-{[(4-methylpiperazin-1-yl)acetyl]amino}-N-(5-phenyl-1,3,4-thiadiazol-2-yl)benzamide] |
| – | – | 7.40 | 4.46 | CC(C(=O)Nc1cc(C(=O)Nc2ccc(-c3cc(F)cc(F)c3)nc2)ccc1OC(F)(F)F)N1CC2CCC(C1)O2 (centres unmarked) [Example 194, N-[6-(3,5-difluorophenyl)pyridin-3-yl]-3-{[2-(8-oxa-3-azabicyclo[3.2.1]oct-3-yl)propanoyl]amino}-4-(trifluoromethoxy)benzamide] |
| 5.71 | ≤ 4.30 | – | – | O=C(CN1CCOCC1)Nc1cc(C(=O)Nc2nnc(-c3ccc([N+](=O)[O-])cc3)s2)ccc1OC(F)(F)F [Example 97, 3-[(morpholin-4-ylacetyl)amino]-N-[5-(4-nitrophenyl)-1,3,4-thiadiazol-2-yl]-4-(trifluoromethoxy)benzamide] |
| 7.58 | ≤ 4.30 | – | – | CN1CCN(C2(C(=O)Nc3cc(C(=O)Nc4nnc(-c5ccccc5)s4)ccc3OC(F)(F)F)CC2)CC1 [Example 52, 3-({[1-(4-methylpiperazin-1-yl)cyclopropyl]carbonyl}amino)-N-(5-phenyl-1,3,4-thiadiazol-2-yl)-4-(trifluoromethoxy)benzamide] |
| 6.27 | ≤ 4.30 | – | – | COCCNC(=O)c1ccc(C(=O)Nc2nnc(-c3ccccc3)s2)cc1NC(=O)CN1CCOCC1 [Example 156, N^1-(2-methoxyethyl)-2-[(morpholin-4-ylacetyl)amino]-N^4-(5-phenyl-1,3,4-thiadiazol-2-yl)terephthalamide] |
| – | – | 6.92 | ≤ 4.30 | CC(C(=O)Nc1cc(C(=O)Nc2ccc(-c3cccc(F)c3)nc2)ccc1OC(F)(F)F)N1C[C@@H]2C[C@H]1CO2 (relative stereo) [Example 244, N-[6-(3-fluorophenyl)pyridin-3-yl]-3-({(2S*)-2-[(1S,4S)-2-oxa-5-azabicyclo[2.2.1]hept-5-yl]propanoyl}amino)-4-(trifluoromethoxy)benzamide] |
| 6.71 | ≤ 4.30 | – | – | Cc1ccccc1-c1nnc(NC(=O)c2ccc(OC(F)(F)F)c(NC(=O)CN3CCN(C)CC3)c2)s1 [Example 144, N-[5-(2-methylphenyl)-1,3,4-thiadiazol-2-yl]-3-{[(4-methylpiperazin-1-yl)acetyl]amino}-4-(trifluoromethoxy)benzamide] |
| 6.44 | ≤ 4.30 | – | – | CN1CCN(CC(=O)Nc2cc(C(=O)Nc3nnc(-c4cccc(C#N)c4)s3)ccc2OC(F)(F)F)CC1 [Example 267, N-[5-(3-cyanophenyl)-1,3,4-thiadiazol-2-yl]-3-{[(4-methylpiperazin-1-yl)acetyl]amino}-4-(trifluoromethoxy)benzamide] |

| Structure (SMILES) | pIC50 ([1]; Homo sapiens, HCT-116, 36 h) | pIC50 ([2]; Homo sapiens, HCT-116, 36 h) | pIC50 [1] | pIC50 [2] |
| --- | --- | --- | --- | --- |
| CN1CCN(CC(=O)Nc2cc(C(=O)Nc3ccc(-c4ccccc4)cn3)ccc2OC(F)(F)F)CC1 [Example 158, 3-{[(4-methylpiperazin-1-yl)acetyl]amino}-N-(5-phenylpyridin-2-yl)-4-(trifluoromethoxy)benzamide] | 7.13 | 4.66 | – | – |
| CC(C(=O)Nc1cc(C(=O)Nc2nnc(-c3ccccc3)s2)ccc1CS(C)(=O)=O)N1CCN(C)CC1 (centres unmarked) [Example 232, 3-{[2-(4-methylpiperazin-1-yl)propanoyl]amino}-4-[(methylsulfonyl)methyl]-N-(5-phenyl-1,3,4-thiadiazol-2-yl)benzamide] | – | – | 5.66 | ≤ 4.30 |
